Reference: publication PMC3634028, “Novel α-MSH Peptide Analogues with Broad Spectrum Antimicrobial Activity” (PLoS ONE, 2013)
Converted amounts (≈) assume the structure as drawn. Where a SMILES comes first, the peptide text is derived from it.

Columns and labels:
C. glabrata = assay type: cell-based, Candida glabrata; details: 48 h
Experimental: (§1) Two Candida albicans isolates were purchased from the ATCC (No. 24433 and 76615). The other yeast isolates were obtained from the collection of Fondazione Ca' Granda- Ospedale Maggiore Policlinico, Milano. The collection included C. albicans (7 isolates), C. glabrata (3 isolates), and C. krusei (3 isolates). Antifungal susceptibility testing was performed using the broth microdilution method according to the NCCLS M27-A guidelines (National Committee for Clinical Laboratory Standards. 1997, Reference method for broth dilution antifungal susceptibility testing of yeasts and approved standard NCCLS document M27-A. National Committee for Clinical Laboratory Standards, Wayne, Pa.). […] After 48 h of incubation, the plates were inspected for purity. A colony was taken from the agar plate and transferred into 5 mL Sabouraud-dextrose broth and incubated for 48 h at 35°C. Cells were centrifuged at 1,000× g for 10 min and the pellet was washed twice with distilled water. Cells were counted and suspended in RPMI 1640 medium buffered to pH 7.0 with 0.165 mol l^−1 morpholinepropanesulphonic acid (MOPS) buffer (Sigma) to obtain the two times test inoculum (1×10^3 to 5×10^3 CFU/mL). […] The MIC90, i.e. the minimum inhibitory concentrations endpoint were determined as 90% reduction in turbidity measured using a spectrophotometer (Titertek multiscan at 690 nm wave length).

C. krusei = assay type: cell-based, Candida krusei; details: 48 h
Experimental: as §1

[1] = tested on: Acinetobacter baumani ATCC 19606; assay type: cell-based; details: ATCC 19606, 18 h
Experimental: (§2) The strains used for the antimicrobial assays were the Gram-negative bacteria Acinetobacter baumani ATCC 19606, Escherichia coli D21, Pseudomonas aeruginosa ATCC 27853, and Pseudomonas syringae pv tabaci 1918NCPPB and the Gram-positive bacteria Bacillus megaterium Bm11, Staphylococcus aureus ATCC 25923, and Staphylococcus epidermidis ATCC 12228. Susceptibility testing was performed by adapting the microbroth dilution method outlined by the Clinical and Laboratory Standards Institute, using sterile 96-well plates (Falcon NJ, USA). The bacterial growth was aseptically measured by absorbance at 590 nm with a spectrophotometer (UV-1700 Pharma Spec Shimadzu, Tokyo, Japan). Afterwards, aliquots (50 µl) of bacteria in mid-log phase at a concentration of 2×10^6 colony-forming units (CFU)/mL in culture medium (Mueller-Hinton, MH) were added to 50 µl of MH broth containing the peptide in serial 2-fold dilutions ranging from 1.56 to 100 µM. Inhibition of microbial growth was determined by measuring the absorbance at 590 nm, after an incubation of 18 h at 37°C with a microplate reader (Infinite M200; Tecan, Salzburg, Austria).

Bacillus megaterium Bm11 = assay type: cell-based; details: Bacillus Bm11, 18 h
Experimental: as §2

Escherichia coli D21 = assay type: cell-based; details: D21, 18 h
Experimental: as §2

[2] = tested on: Pseudomonas aeruginosa ATCC 27853; assay type: cell-based; details: ATCC 27853, 18 h
Experimental: as §2

[3] = tested on: Pseudomonas syringae pv tabaci 1918NCPPB; assay type: cell-based; details: 18 h
Experimental: as §2

[4] = tested on: Staphylococcus aureus ATCC 25923; assay type: cell-based; details: ATCC 25923, 18 h
Experimental: as §2

[5] = tested on: Staphylococcus epidermidis ATCC 12228; assay type: cell-based; details: ATCC 12228, 18 h
Experimental: as §2

[6] = tested on: HaCaT keratinocyte cell line; assay: Cytotoxic activity, MTT colorimetric method; assay type: cell-based, human; details: 24 h; for cell death / killing of human keratinocytes: highest peptide concentration used (100 µM)
Experimental: Effects on viability was tested in the immortalised keratinocyte cell line HaCaT using the [3(4,5-dimethylthiazol-2yl)2,5-diphenyltetrazolium bromide] (MTT) colorimetric method in which the intensity of the dye is proportional to the number of viable cells. MTT is a tetrazolium salt which is reduced to a colored formazan product by mitochondrial reductases present only in metabolically active cells. Cells were cultured in Dulbecco's modified Eagle's medium (DMEM; Sigma) supplemented with 10% heat inactivated fetal bovine serum, glutamine (4 mM) and gentamicin. Afterwards, cells were plated in triplicate wells of a microtiter plate, at 4×10^4 cells/well in DMEM supplemented with 2% serum without antibiotic. After overnight incubation at 37°C in a 5% CO2 atmosphere, the medium was replaced with […] fresh DMEM supplemented with the peptides at different concentrations. The plate was incubated for 24 h at 37°C in a 5% CO2 atmosphere. Then, DMEM was removed and replaced with Hank's medium (136 mM NaCl; 4.2 mM Na2HPO4; 4.4 mM KH2PO4; 5.4 mM KCl; 4.1 mM NaHCO3, pH 7.2, supplemented with 20 mM D-glucose) containing 0.5 mg/ml MTT. After 4 h incubation, the formazan crystals were dissolved by adding 100 µl of acidified isopropanol and absorption of each well was measured using a microplate reader (Infinite M200; Tecan, Salzburg, Austria) at 570 nm. Cell viability was e expressed as percentage of viability in control cells (cells not treated with peptide).
Figure 1 Effects of the synthetic melanocortins on viability of HaCat cells. Cells were plated in wells of a microtiter plate, at 4×10^4 cells/well in DMEM supplemented with 2% serum without antibiotic. After overnight incubation at 37°C in a 5% CO2 atmosphere, the medium was replaced with 100 µl fresh DMEM supplemented with the peptides at different concentrations. […] Cell viability is expressed as percentage of viability in control cells (cells not treated with the peptide).

[7] = tested on: Candida strains (C. albicans, C. glabrata, C. krusei); assay: Anti-Candida assay, overall result in words; assay type: cell-based, Candida spp; details: standard culture conditions, broth culture medium
Experimental: as §1

C. albicans = assay type: cell-based, Candida albicans; details: 48 h
Experimental: as §1

Candida = tested on: Candida; design: method as in PMID 15743181; details: cited from earlier work

CC(C)[C@H](NC(=O)[C@H](Cc1ccccc1)NC(=O)[C@H](CCCCN)NC(=O)[C@H](Cc1ccccc1)NC(=O)[C@H](Cc1c[nH]c2ccccc12)NC(=O)[C@H](CCCNC(=N)N)NC(=O)[C@@H](Cc1ccc2ccccc2c1)NC(=O)[C@@H](N)Cc1c[nH]cn1)C(N)=O [Peptide 9, H-His-D(2′)Nal-Arg-Trp-Phe-Lys-Phe-Val-NH2] (HELM PEPTIDE1{H.[O=C([C@@H](Cc1ccc2ccccc2c1)N[*:1])[*:2]].R.W.F.K.F.V.[am]}$$$$V2.0)
MIC 90 (C. glabrata): >100 µM | MIC 90 (C. krusei): >100 µM | MIC 100 [1]: 25 µM (≈ 30.4 µg/mL) | MIC 100 (Bacillus megaterium Bm11): 3.125 µM (≈ 3.8 µg/mL) | MIC 100 (Escherichia coli D21): 50 µM (≈ 60.8 µg/mL) | MIC 100 [2]: 25 µM (≈ 30.4 µg/mL) | MIC 100 [3]: 100 µM (≈ 122 µg/mL) | MIC 100 [4]: 50 µM (≈ 60.8 µg/mL) | MIC 100 [5]: 12.5 µM (≈ 15.2 µg/mL) | cell death / killing of human keratinocytes [6]: less than 30% | antimicrobial / anti-Candida activity (in words) [7]: decreased activity

CC(C)[C@H](NC(=O)[C@H](Cc1ccccc1)NC(=O)[C@H](CCCCN)NC(=O)[C@H](CC1CCCCC1)NC(=O)[C@H](Cc1c[nH]c2ccccc12)NC(=O)[C@H](CCCNC(=N)N)NC(=O)[C@@H](Cc1ccc2ccccc2c1)NC(=O)[C@@H](N)Cc1c[nH]cn1)C(N)=O [Peptide 10, H-His-D(2′)Nal-Arg-Trp-Cha-Lys-Phe-Val-NH2] (HELM PEPTIDE1{H.[O=C([C@@H](Cc1ccc2ccccc2c1)N[*:1])[*:2]].R.W.[Cha].K.F.V.[am]}$$$$V2.0)
MIC 90 (C. glabrata): >100 µM | MIC 100 [1]: 12.5 µM (≈ 15.3 µg/mL) | MIC 100 (Bacillus megaterium Bm11): 3.125 µM (≈ 3.82 µg/mL) | MIC 100 (Escherichia coli D21): 6.25 µM (≈ 7.63 µg/mL) | MIC 100 [2]: 25 µM (≈ 30.5 µg/mL) | MIC 100 [3]: 25 µM (≈ 30.5 µg/mL) | MIC 100 [4]: 12.5 µM (≈ 15.3 µg/mL) | MIC 100 [5]: 6.25 µM (≈ 7.63 µg/mL) | toxic effects on human keratinocytes (in words) ([6]; at 50–100 µM concentrations): exerted toxic effects | toxic activity on human keratinocytes (in words) ([6]; up to a concentration of 12.5 µM): completely devoid of toxic activity | antimicrobial / anti-Candida activity (in words) [7]: potency similar to that of peptide 8

CC(C)[C@H](NC(=O)[C@H](Cc1ccccc1)NC(=O)[C@H](CCCCN)NC(=O)C1(NC(=O)[C@H](Cc2c[nH]c3ccccc23)NC(=O)[C@H](CCCNC(=N)N)NC(=O)[C@@H](Cc2ccc3ccccc3c2)NC(=O)[C@@H](N)Cc2c[nH]cn2)Cc2ccccc2C1)C(N)=O [Peptide 8, H-His-D(2′)Nal-Arg-Trp-Aic-Lys-Phe-Val-NH2] (HELM PEPTIDE1{H.[O=C([C@@H](Cc1ccc2ccccc2c1)N[*:1])[*:2]].R.W.[O=C(C1(N[*:1])Cc2ccccc2C1)[*:2]].K.F.V.[am]}$$$$V2.0)
MIC 90 (C. glabrata): 100 µM (≈ 123 µg/mL) | MIC 100 [1]: 12.5 µM (≈ 15.3 µg/mL) | MIC 100 (Bacillus megaterium Bm11): 1.56 µM (≈ 1.91 µg/mL) | MIC 100 (Escherichia coli D21): 12.5 µM (≈ 15.3 µg/mL) | MIC 100 [2]: 50 µM (≈ 61.4 µg/mL) | MIC 100 [3]: 25 µM (≈ 30.7 µg/mL) | MIC 100 [4]: 12.5 µM (≈ 15.3 µg/mL) | MIC 100 [5]: 6.25 µM (≈ 7.67 µg/mL) | cell death / killing of human keratinocytes [6]: 50–100%

CC(C)[C@H](NC(=O)[C@H](Cc1ccccc1)NC(=O)[C@H](CCCCN)NC(=O)[C@@H](NC(=O)[C@H](Cc1c[nH]c2ccccc12)NC(=O)[C@H](CCCNC(=N)N)NC(=O)[C@@H](Cc1ccc2ccccc2c1)NC(=O)[C@@H](N)Cc1c[nH]cn1)C(C)(C)C)C(N)=O [Peptide 3, H-His-D(2′)Nal-Arg-Trp-tBuGly-Lys-Phe-Val-NH2] (HELM PEPTIDE1{H.[O=C([C@@H](Cc1ccc2ccccc2c1)N[*:1])[*:2]].R.W.[CC(C)(C)[C@H](N[*:1])C(=O)[*:2]].K.F.V.[am]}$$$$V2.0)
MIC 90 (C. albicans): >100 µM | MIC 90 (C. glabrata): >100 µM | MIC 90 (C. krusei): >100 µM | MIC 100 [1]: 100 µM (≈ 118 µg/mL) | MIC 100 (Bacillus megaterium Bm11): 6.25 µM (≈ 7.38 µg/mL) | MIC 100 (Escherichia coli D21): 50 µM (≈ 59.1 µg/mL) | MIC 100 [2]: 50 µM (≈ 59.1 µg/mL) | MIC 100 [3]: >100 µM | MIC 100 [4]: >100 µM | MIC 100 [5]: 50 µM (≈ 59.1 µg/mL) | cell death / killing of human keratinocytes [6]: less than 30% | antimicrobial / anti-Candida activity (in words) [7]: inactive

CC(C)[C@H](NC(=O)[C@H](Cc1ccccc1)NC(=O)[C@H](CCCCN)NC(=O)CNC(=O)[C@H](Cc1c[nH]c2ccccc12)NC(=O)[C@H](CCCNC(=N)N)NC(=O)[C@@H](Cc1ccc2ccccc2c1)NC(=O)[C@@H](N)Cc1c[nH]cn1)C(N)=O [DNal, H-His-D(2′)Nal-Arg-Trp-Gly-Lys-Phe-Val-NH2, reference compound] (HELM PEPTIDE1{H.[O=C([C@@H](Cc1ccc2ccccc2c1)N[*:1])[*:2]].R.W.G.K.F.V.[am]}$$$$V2.0)
MIC 90 (C. albicans): >100 µM | MIC 90 (C. glabrata): >100 µM | MIC 90 (C. krusei): >100 µM | MIC 100 [1]: >100 µM | MIC 100 (Bacillus megaterium Bm11): 6 µM (≈ 6.75 µg/mL) | MIC 100 (Escherichia coli D21): >100 µM | MIC 100 [2]: 100 µM (≈ 113 µg/mL) | MIC 100 [3]: >100 µM | MIC 100 [4]: >100 µM | MIC 100 [5]: 50 µM (≈ 56.3 µg/mL) | cell death / killing of human keratinocytes [6]: 50–100% | antimicrobial / anti-Candida activity (in words) [7]: did not have substantial antimicrobial activity | killing of Candida (in words) (Candida; in growth medium ref 7): did not kill | Candida organisms killed (Candida; organisms incubated in distilled water ref 7): 100%

CC(C)[C@H](NC(=O)[C@H](Cc1ccccc1)NC(=O)[C@H](CCCCN)NC(=O)C1(NC(=O)[C@H](Cc2c[nH]c3ccccc23)NC(=O)[C@H](CCCNC(=N)N)NC(=O)[C@@H](Cc2ccc3ccccc3c2)NC(=O)[C@@H](N)Cc2c[nH]cn2)CC1)C(N)=O [Peptide 4, H-His-D(2′)Nal-Arg-Trp-Ac3c-Lys-Phe-Val-NH2] (HELM PEPTIDE1{H.[O=C([C@@H](Cc1ccc2ccccc2c1)N[*:1])[*:2]].R.W.[O=C(C1(N[*:1])CC1)[*:2]].K.F.V.[am]}$$$$V2.0)
MIC 90 (C. albicans): >100 µM | MIC 90 (C. glabrata): >100 µM | MIC 90 (C. krusei): >100 µM | MIC 100 [1]: 50 µM (≈ 57.6 µg/mL) | MIC 100 (Bacillus megaterium Bm11): 6.25 µM (≈ 7.2 µg/mL) | MIC 100 (Escherichia coli D21): 100 µM (≈ 115 µg/mL) | MIC 100 [2]: 50 µM (≈ 57.6 µg/mL) | MIC 100 [3]: >100 µM | MIC 100 [4]: 100 µM (≈ 115 µg/mL) | MIC 100 [5]: 25 µM (≈ 28.8 µg/mL) | cell death / killing of human keratinocytes [6]: less than 30% | antimicrobial / anti-Candida activity (in words) [7]: inactive
